In data set [1] the target is T1, Heat shock factor protein 1 (Mus musculus, UniProt P38532).
T1 sequence (P38532 whole entry): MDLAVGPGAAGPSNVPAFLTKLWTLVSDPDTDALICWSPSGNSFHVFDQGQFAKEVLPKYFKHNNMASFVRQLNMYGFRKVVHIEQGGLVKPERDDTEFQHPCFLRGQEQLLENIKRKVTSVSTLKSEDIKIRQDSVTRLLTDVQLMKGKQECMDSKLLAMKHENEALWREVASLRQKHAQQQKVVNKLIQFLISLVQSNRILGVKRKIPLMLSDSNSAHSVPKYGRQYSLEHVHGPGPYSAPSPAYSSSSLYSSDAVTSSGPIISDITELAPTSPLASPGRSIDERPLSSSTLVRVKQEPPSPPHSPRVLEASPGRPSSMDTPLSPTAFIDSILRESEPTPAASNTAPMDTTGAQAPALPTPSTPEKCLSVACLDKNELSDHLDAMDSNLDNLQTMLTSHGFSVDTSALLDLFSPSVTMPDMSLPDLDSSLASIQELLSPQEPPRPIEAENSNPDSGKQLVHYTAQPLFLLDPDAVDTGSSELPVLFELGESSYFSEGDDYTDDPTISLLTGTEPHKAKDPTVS
The data set can be described thus: inhibition of MG132-induced HSE-luciferase signal, confirmation, cell-based, NIH3T3, luminescence, dose retest (AID 2382).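 Further: NIH3T3 fibroblasts with HSF1-driven luciferase reporter stressed by proteasome inhibitor MG132; luminescence from HSF1-driven luciferase expression after 8 hours of MG132 stress.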 In kind it is functional.

For data set [2], the target named is T2, RNA-binding protein pos-1 (Caenorhabditis elegans, UniProt G5EF15).
T2 sequence (G5EF15 whole entry): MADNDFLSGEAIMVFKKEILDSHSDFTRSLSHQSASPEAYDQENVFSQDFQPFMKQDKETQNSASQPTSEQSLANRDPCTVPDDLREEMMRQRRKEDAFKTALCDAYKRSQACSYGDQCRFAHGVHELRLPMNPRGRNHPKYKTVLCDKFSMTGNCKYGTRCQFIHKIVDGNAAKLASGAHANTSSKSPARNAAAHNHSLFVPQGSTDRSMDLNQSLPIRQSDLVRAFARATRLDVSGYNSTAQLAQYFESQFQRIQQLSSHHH
The data set can be described thus: inhibitors of POS-1/mex-3 RNA binding, dose response, biochemical, fluorescence polarization (AID 1964).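 Further: purified POS-1 fused to maltose binding protein made in E. coli; potency of compounds blocking POS-1 binding to fluorescent RNA.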 In general terms: Polarisation of emitted light reports the rotation of a fluorescent probe.

Data set [3] addresses T3, Zinc finger protein mex-5 (Caenorhabditis elegans, UniProt Q9XUB2).
T3 sequence (Q9XUB2 whole entry): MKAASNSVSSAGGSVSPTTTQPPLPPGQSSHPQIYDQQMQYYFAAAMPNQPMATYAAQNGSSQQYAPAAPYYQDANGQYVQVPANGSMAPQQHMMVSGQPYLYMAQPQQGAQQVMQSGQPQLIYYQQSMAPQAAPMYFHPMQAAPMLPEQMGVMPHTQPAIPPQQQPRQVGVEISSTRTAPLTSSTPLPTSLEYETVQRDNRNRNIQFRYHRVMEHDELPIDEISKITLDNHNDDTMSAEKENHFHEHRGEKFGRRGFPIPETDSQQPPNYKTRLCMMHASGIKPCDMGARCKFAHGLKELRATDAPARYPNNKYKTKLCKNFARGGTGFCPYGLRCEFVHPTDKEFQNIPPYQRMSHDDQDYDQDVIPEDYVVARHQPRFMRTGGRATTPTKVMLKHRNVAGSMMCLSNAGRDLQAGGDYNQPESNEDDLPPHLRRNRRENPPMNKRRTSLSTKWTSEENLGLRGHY
The data set can be described thus: MEX-5/TCR-2 RNA interaction inhibitors, dose response, biochemical, C. elegans, fluorescence polarization (AID 1960).

Data set [4] can be described thus: inhibitors of intracellular T. cruzi replication, confirmation, NIH3T3 host cells, beta-gal luminescence (AID 2044).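 Further: intracellular parasites grown in NIH/3T3 mouse fibroblasts as host cells; luminescent beta-galactosidase reporter signal from transgenic T. cruzi replicating inside host cells; inhibitors lower the luminescence signal.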 The data set is classed as functional, cell-based.
Data set [5] can be described thus: cytotoxicity toward NIH3T3 fibroblasts, dose response, counter-screen, cell-based, ATP luminescence, mouse fibroblasts (AID 2010).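 Further: cells exposed to compound for about 90 hours before reading.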 In kind it is functional. On the technique in general: Counterscreens check selectivity or assay interference.
A further data set concerns the target T4, Leucine aminopeptidase (Plasmodium falciparum 3D7, UniProt Q8IL11).
T4 sequence (Q8IL11 whole entry): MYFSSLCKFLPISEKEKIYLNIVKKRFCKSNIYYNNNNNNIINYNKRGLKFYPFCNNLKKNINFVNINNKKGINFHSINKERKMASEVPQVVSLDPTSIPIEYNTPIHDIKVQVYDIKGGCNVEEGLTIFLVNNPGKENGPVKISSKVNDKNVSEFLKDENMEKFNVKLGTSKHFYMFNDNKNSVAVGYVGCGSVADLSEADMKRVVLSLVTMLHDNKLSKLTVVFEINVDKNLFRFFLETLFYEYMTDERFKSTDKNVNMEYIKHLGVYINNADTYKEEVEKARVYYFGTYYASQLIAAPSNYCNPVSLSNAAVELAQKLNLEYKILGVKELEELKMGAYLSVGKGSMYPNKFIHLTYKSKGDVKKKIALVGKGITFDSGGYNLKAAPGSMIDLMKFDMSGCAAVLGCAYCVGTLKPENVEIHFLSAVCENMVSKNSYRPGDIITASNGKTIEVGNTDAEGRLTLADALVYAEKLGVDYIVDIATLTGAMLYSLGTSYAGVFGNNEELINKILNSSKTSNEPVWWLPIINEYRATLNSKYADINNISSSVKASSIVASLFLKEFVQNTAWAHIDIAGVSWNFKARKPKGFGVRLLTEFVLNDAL
Nature of the data set: P. falciparum M17LAP inhibitors, primary screen, biochemical, fluorogenic H-Leu-NHMec substrate, 1536-well (AID 1619). The data set is classed as functional.

Data set [6] concerns the target T5, Ubiquitin-conjugating enzyme E2 N (Homo sapiens, UniProt P61088).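 Further: Dose-response confirmation in a TR-FRET assay detecting UBC13-driven polyubiquitin chain formation, inhibition measured.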
T5 sequence (P61088 whole entry): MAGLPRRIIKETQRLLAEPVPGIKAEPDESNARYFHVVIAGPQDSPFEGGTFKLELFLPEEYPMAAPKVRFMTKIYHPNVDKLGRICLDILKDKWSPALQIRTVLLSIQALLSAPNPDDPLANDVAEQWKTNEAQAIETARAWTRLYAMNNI
In kind it is functional.

Data set [7] can be described thus: Luminescence Cell-Based Dose Retest to Confirm Inhibitors of Cancer Stem Cells. [Related pubchem assays (depositor defined):AID2717, AID2721]. In kind it is functional. As to conditions: Homo sapiens.
Data set [8] can be described thus: inhibitors of SNCA 5'UTR-driven reporter translation, confirmation, H4 neuroglioma cells, luminescence (AID 1988). In kind it is functional, cell-based.
The target of another data set is Cytochrome P450 2C9 (Homo sapiens, UniProt P11712).
Sequence of Cytochrome P450 2C9 (P11712 whole entry): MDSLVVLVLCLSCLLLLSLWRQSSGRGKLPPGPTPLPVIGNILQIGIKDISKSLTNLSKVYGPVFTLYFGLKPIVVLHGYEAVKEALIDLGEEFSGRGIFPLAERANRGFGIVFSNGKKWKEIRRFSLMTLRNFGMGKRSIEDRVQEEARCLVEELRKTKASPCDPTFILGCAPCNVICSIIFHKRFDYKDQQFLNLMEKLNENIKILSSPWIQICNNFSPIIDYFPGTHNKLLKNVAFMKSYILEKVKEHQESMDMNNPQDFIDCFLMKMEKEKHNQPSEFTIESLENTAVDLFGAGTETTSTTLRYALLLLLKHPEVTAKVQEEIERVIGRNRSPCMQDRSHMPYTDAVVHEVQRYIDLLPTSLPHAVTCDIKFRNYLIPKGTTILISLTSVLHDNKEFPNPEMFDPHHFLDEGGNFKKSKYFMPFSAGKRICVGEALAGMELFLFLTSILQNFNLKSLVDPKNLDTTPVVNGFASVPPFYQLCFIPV
Data set [9] can be described thus: growth suppression of beta-catenin-knockout colon cells, dose response, cell-based, HCT116, human colon tumor (AID 1045).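 Further: HCT116 colon tumor cells with beta catenin knocked out; cells exposed to compound for 60 hours.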 The data set is classed as functional.
For the next data set, the target named is T6, Streptokinase A (Streptococcus pyogenes serotype M1, UniProt P10520).
T6 sequence (P10520 whole entry): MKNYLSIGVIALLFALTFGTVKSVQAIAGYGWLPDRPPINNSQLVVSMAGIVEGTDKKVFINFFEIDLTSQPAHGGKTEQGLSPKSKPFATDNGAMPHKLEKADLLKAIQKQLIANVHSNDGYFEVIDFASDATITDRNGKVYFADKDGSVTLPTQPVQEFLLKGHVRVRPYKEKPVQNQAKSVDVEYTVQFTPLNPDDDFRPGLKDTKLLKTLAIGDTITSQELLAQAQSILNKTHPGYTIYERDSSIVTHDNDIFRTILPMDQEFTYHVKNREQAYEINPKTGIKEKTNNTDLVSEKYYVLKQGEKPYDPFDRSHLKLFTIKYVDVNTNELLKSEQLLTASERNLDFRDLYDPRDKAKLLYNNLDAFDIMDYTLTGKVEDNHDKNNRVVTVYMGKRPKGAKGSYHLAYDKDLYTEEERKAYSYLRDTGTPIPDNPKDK
Nature of the data set: S. pyogenes streptokinase expression inhibitors, potency, dose response, plasminogen activation absorbance, OD405 (AID 1914).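 Further: secreted streptokinase activity via plasminogen activation per viability signal from cell pellet.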 In kind it is functional, Streptococcus pyogenes M1 GAS.

Data set [10] in a line: growth suppression of PTEN-null colon cells, dose response, cell-based, HCT116 PTEN knockout (AID 1047).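 Further: HCT116 colon tumor cells with PTEN knocked out; cells exposed to compound for 60 hours before readout; potency for loss of cell viability measured by luminescence.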 In kind it is functional.
In a further data set the target is T7, Cytochrome P450 1A2 (Homo sapiens, UniProt P05177).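 Further: PubChem cytochrome P450 panel assay, CYP1A2 panel member.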
T7 sequence (P05177 whole entry): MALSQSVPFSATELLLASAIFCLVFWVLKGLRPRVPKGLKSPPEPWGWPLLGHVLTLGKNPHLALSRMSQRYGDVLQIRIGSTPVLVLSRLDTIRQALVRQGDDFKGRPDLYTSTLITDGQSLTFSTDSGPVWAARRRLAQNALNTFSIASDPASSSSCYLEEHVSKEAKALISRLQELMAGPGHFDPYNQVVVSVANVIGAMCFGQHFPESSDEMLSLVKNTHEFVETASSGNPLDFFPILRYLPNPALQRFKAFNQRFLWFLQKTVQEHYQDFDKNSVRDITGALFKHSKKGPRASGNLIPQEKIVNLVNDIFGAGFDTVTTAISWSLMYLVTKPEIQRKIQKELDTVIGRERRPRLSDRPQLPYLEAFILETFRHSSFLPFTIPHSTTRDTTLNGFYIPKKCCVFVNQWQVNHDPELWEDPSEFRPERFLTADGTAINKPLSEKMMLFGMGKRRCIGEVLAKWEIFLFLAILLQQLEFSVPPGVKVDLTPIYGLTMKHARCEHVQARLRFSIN

A short description of data set [11]: Luminescence Cell-Based Dose Response HTS to Identify Inhibitors of 5'UTR Stem-Loop Driven Prion Protein mRNA Translation in H4 Neuroglioblastoma Cells. [Related pubchem assays: 1827 (Project Summary), 1813 (Primary HTS)]. In kind it is functional.
The subject of data set [12] is Streptococcus sp. 'group A'. The data set can be described thus: growth inhibition of control SK(-) GAS strain, dose response, counter-screen for streptokinase expression inhibitor project, luminescence, kanamycin, BacTiterGlo, confirmation (AID 1900). In kind it is functional, organism-based.
The next data set deals with Streptococcus. The data set can be described thus: Group A Streptococcus viability loss, dose response, counter-screen for streptokinase expression inhibitor project, luminescence, BacTiterGlo (AID 1915).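 Further: potency for reduction of bacterial viability or growth.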 In kind it is functional, organism-based.
Data set [13] is described as follows: inhibitors of firefly luciferase expression or activity, dose response, H4 neuroglioma cells, luminescence (AID 1990). The data set is classed as functional, cell-based.
Another data set addresses Cytochrome P450 3A4 (Homo sapiens, UniProt P08684).
In another data set the target is Large T antigen (Simian virus 40, UniProt P03070). In kind it is functional, Betapolyomavirus macacae.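 Further: Confirmatory-stage PubChem screen for compounds that inhibit SV40 T antigen.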
Sequence of Large T antigen (P03070 whole entry): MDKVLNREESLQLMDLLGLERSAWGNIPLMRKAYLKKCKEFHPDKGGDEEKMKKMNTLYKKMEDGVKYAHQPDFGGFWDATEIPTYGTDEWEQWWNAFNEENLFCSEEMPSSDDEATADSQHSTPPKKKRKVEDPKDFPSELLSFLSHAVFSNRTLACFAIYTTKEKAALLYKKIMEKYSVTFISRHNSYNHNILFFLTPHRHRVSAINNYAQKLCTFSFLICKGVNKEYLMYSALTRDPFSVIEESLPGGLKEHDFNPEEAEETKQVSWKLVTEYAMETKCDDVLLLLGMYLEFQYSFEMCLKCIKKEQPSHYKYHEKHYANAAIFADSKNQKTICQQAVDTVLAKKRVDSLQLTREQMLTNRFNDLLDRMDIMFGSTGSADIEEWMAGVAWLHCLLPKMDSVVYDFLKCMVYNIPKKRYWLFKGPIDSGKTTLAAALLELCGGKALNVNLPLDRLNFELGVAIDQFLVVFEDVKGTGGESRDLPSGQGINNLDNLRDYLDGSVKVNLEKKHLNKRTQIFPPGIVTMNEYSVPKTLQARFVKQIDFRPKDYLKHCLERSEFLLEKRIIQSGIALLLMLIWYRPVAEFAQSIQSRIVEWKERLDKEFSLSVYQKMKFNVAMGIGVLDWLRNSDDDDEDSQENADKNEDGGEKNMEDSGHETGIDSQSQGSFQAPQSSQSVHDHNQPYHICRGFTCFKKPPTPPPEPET

Activity calls are given as the source filed them. For most assays here, no stated cut-off is given here; in the data, actives have a measured EC50 and inactives only a lower limit.

Broadly, the EC50 is the concentration giving half of the maximal effect. What is called IC50 is the concentration at which inhibition is half-maximal. Broadly, the AC50 is the concentration giving half of the maximal activity seen.

Sequence of Cytochrome P450 3A4 (P08684 whole entry): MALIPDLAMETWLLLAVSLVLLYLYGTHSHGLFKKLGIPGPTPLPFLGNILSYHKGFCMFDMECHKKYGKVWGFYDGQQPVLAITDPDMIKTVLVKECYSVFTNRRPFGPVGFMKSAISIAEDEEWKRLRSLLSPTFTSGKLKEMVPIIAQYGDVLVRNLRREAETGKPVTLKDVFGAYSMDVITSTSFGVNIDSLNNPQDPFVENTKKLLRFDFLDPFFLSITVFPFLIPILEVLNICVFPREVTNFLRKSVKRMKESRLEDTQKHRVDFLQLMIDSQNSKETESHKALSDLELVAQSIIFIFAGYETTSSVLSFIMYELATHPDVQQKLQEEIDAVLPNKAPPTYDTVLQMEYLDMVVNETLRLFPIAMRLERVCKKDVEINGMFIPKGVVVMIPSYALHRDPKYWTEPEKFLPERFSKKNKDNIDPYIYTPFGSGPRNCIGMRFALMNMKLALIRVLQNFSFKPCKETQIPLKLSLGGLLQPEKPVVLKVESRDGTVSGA

Consider `Brc1ccc(C2=CC(c3ccco3)n3ncnc3N2)cc1` (centres undefined), for which the results for the EC50 in [1], in data set [2] and in data set [3] were > 195 µM (not active), > 300 µM (inconclusive) and 18.1 µM (active), respectively.

`O=S(=O)(c1ccccc1)N1CCC(O)(CSc2ccc(Cl)cc2)CC1`: the EC50 in data set [2] and in data set [3] was > 300 µM (not active) each time.

For the molecule `O=C(NNc1ccccc1)C(=O)NNS(=O)(=O)c1ccc([N+](=O)[O-])cc1`, the EC50 in data set [2] was 21.1 µM (active); in [4], 0.87 µM (active); in [5] it was 9.05 µM (active); in data set [3], 5.08 µM (active).

As to `COc1cccc2c(=O)n(CC(=O)N3CCC(C)CC3)ccc12`, the IC50 at Leucine aminopeptidase was 42.5 µM (active).

Take `CCCCc1ccc(NC(=O)N[C@H](C(=O)O)C(C)CC)cc1` (some centres undefined): the IC50 at Leucine aminopeptidase is 6.31 µM (active).

As to `COc1ccc(Nc2cc(Nc3cc(OC)c(OC)c(OC)c3)ncn2)cc1`, in [6], the IC50 was > 20 µM (inactive).

Turning to `CCN(CC)c1ccc(C(=O)OCc2cc(=O)oc3cc(O)ccc23)cc1`, the AC50 was 4.72 µM (active) in data set [7], “inconclusive” at Cytochrome P450 2C9 and 2.24 µM (inconclusive) on Cytochrome P450 1A2. In addition, the EC50 is 10.5 µM (active) in [8]; 5.62 µM (active) in [9]; 128 µM (active) at Streptokinase A; 7.3 µM (active) in data set [10]; > 120 µM (not active) in data set [11]; 16.1 µM (active) in data set [12]. Besides, the half-maximal effective concentration (EC50) with Streptococcus was > 150 µM (not active); in data set [13] it was 9 µM (active).

Regarding `CN(C)c1ccnc(Oc2ccc(Cl)cc2)c1C#N`, the EC50 in data set [2] and in data set [3] was > 300 µM (not active) throughout. In addition, at Cytochrome P450 3A4, the AC50 was 3.16 µM (inconclusive).

In the case of `O=Cc1c(-c2ccccc2)nc2ccccn12`, the EC50 in [2] and in data set [3] was > 300 µM (not active) throughout.

Turning to `COc1ccc(N2CCN(C(=O)CN(c3ccccc3)S(C)(=O)=O)CC2)cc1`, the IC50 on Large T antigen is > 100 µM (active).

`CCOC(=O)c1c(-c2ccccc2)csc1NC(=O)/C(C#N)=C/c1ccc(OC)c(OC)c1`: the EC50 in data set [2] and in [3] was > 300 µM (not active) each time.

As for `COC(=O)c1ccc(NCC(=O)N2CCCCCC2)cc1`, the IC50 at Leucine aminopeptidase was 40.3 µM (active).

Take `O=C(CN1C(=O)C2C3C=CC(C4CC34)C2C1=O)Nc1cnc2ccccc2c1` (centres undefined): at Leucine aminopeptidase, the IC50 is 21.7 µM (active).

With `CCN(CCCNC(=O)c1cc2c(-c3cccc(OC)c3)nn(C)c2s1)Cc1ccccc1`, the IC50 in data set [6] was > 20 µM (inactive).

For `CCOc1ccc(C2OC34CCCCC3C(C#N)(C#N)C2(C#N)C(=N)O4)cc1OC` (centres undefined), the values for the EC50 in [2] and in data set [3] were 11.8 µM (active) and 10.5 µM (active), respectively.

Take `COc1ccc(/C(C)=C2\SC(=S)N(CCC(=O)O)C2=O)cc1`: on Leucine aminopeptidase, the IC50 is 30.1 µM (active).

In the case of `CN(C)c1ccc(N/C=C/C(=O)C(F)(F)F)cc1`, at Large T antigen, the IC50 was 9.98 µM (active).

For `CCC(=O)NC(c1cc(Cl)c2ccccc2c1O)C1CC1` (centres undefined), in data set [6], the IC50 was > 20 µM (inactive).

With `COc1ccc(C(=O)/C=C/Nc2ccc([N+](=O)[O-])cc2C)cc1OC`, the values for the 50% effective concentration (EC50) in data set [2] and in data set [3] were 54.6 µM (active) and > 150 µM (not active), respectively.

For the molecule `Cc1ccc2c(c1)c(/N=N/C(=N)S)c(O)n2Cc1ccccc1`, the IC50 in data set [6] is > 20 µM (inactive).

For the molecule `CCNc1nn2ccccc2c1/C=C(\C#N)C(=O)OCC`, the EC50 in data set [2] is > 300 µM (not active); in data set [3], 68.8 µM (active).
